In this assay the target is T1, HPK1 (Homo sapiens, UniProt Q92918).
T1 construct: A HiBiT tag was introduced by CRISPR on the N terminus of HPK1 in Jurkat cells; host or cells: Jurkat cells (ATCC TIB-152), monoclonal line with CRISPR knock-in of HiBiT at the endogenous HPK1 locus
Kind of assay: HPK1 Cellular HiBit Degradation Assay. The assay is classed as cell-based. The conditions noted are these: HiBiT HPK1 Jurkat cells, 24 hrs; for DC50: concentration at which 50% of HPK1 was remaining, read-out: DC50 Category; for Dmax: Jurkat, maximum degradation vs DMSO vehicle control, read-out: Dmax Category. An outline of the steps: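 Degraders are dosed in an 11-point series (10 uM to 0.1 nM final) onto Jurkat cells carrying an N-terminal HiBiT tag on endogenous HPK1. After 24 hrs at 37° C, lysis-based HiBiT luminescence quantifies remaining HPK1 relative to vehicle, and curve fitting gives DC50 and Dmax.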
(In general: HiBiT is a short tag that completes a luciferase, so light tracks the accessible tagged protein.)

In general, DC50 refers to the midpoint of the concentration-degradation curve. In general, Dmax refers to the greatest extent of degradation seen.

T1 sequence (Q92918 whole entry): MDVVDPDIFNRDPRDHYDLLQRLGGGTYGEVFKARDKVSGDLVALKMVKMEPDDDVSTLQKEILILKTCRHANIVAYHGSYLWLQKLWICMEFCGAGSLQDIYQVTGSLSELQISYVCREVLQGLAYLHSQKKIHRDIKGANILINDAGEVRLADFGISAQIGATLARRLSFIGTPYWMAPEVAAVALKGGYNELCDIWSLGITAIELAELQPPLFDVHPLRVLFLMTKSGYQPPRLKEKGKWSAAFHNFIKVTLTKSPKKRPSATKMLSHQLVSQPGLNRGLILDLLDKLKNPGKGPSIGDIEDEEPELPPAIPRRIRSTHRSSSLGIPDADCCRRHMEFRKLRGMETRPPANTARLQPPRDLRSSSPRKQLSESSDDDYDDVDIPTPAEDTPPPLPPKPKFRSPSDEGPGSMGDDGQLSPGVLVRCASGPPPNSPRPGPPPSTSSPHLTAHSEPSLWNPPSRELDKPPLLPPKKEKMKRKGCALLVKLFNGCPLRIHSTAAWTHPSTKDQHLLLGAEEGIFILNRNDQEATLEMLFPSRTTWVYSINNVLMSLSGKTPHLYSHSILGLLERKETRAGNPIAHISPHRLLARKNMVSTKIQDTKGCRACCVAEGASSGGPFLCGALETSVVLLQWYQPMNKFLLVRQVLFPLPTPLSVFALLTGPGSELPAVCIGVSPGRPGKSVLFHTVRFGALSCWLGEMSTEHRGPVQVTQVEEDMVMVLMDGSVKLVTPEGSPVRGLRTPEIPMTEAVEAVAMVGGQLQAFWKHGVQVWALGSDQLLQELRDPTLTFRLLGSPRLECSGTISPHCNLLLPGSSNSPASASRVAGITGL

For `CC(C)n1cnc2cc(-c3ccc4c(c3)N([C@H]3C[C@@H](N5CCCCC5)C3)C(=O)C43CCN(C(=O)C4(C)CCN(C(=O)[C@H]5CC[C@H](Oc6ccc(C7CCC(=O)NC7=O)cn6)CC5)CC4)CC3)nc(NC3CC3)c21` (mixture of isomers) [Example 104, (3RS)-3-(6-{[(1R,4R)-4-[4-({6-[4-(cyclopropylamino)-3-(propan-2-yl)-3H-imidazo[4,5-c]pyridin-6-yl]-2-oxo-1-[(1S,3S)-3-(piperidin-1-yl)cyclobutyl]-1,2-dihydrospiro[indole-3,4′-piperidin]-1′-yl}carbonyl)-4-methylpiperidine-1-carbonyl]cyclohexyl]oxy}pyridin-3-yl)piperidine-2,6-dione], the DC50 is less than 100 nM and the Dmax was 70 to 85%.
The like results for `CC(C)n1cnc2cc(-c3ccc4c(c3)N([C@H]3C[C@@H](N5CCCCC5)C3)C(=O)C43CCN(C(=O)C4(C)CCN(C(=O)[C@H]5CC[C@H](Oc6ccc(C7CCC(=O)NC7=O)cn6)CC5)CC4)CC3)nc(Nc3ccccc3F)c21` (mixture of isomers) [Example 105, (3RS)-3-(6-{1[(1R,4R)-4-{4-[(6-{4-[(2-fluorophenyl)amino]-3-(propan-2-yl)-3H-imidazo[4,5-c]pyridin-6-yl}-2-oxo-1-[(1S,3S)-3-(piperidin-1-yl)cyclobutyl]-1,2-dihydrospiro[indole-3,4′-piperidin]-1′-yl)carbonyl]-4-methylpiperidine-1-carbonyl}cyclohexyl]oxy}pyridin-3-yl)piperidine-2,6-dione] were, in that order, less than 100 nM and more than 85%.
In the same order, the values of `CC(C)n1cnc2cc(-c3ccc4c(c3)N([C@H]3C[C@@H](N5CCCCC5)C3)C(=O)C43CCN(C(=O)C4(C)CCN(C(=O)[C@H]5CC[C@H](Oc6ccc(C7CCC(=O)NC7=O)cn6)CC5)CC4)CC3)nc(Nc3ccncc3F)c21` (mixture of isomers) [Example 106] are less than 100 nM and 70 to 85%.
Regarding `CC(C)n1cnc2cc(-c3ccc4c(c3)N([C@H]3C[C@@H](N5CCCCC5)C3)C(=O)C43CCN(C(=O)C4(C)CCN(C(=O)C5CCN(c6ccc(C7CCC(=O)NC7=O)cc6)CC5)CC4)CC3)nc(Nc3ccccc3F)c21` (mixture of isomers) [Example 110, (3RS)-3-[4-(4-{4-[(6-{4-[(2-fluorophenyl)amino]-3-(propan-2-yl)-3H-imidazo[4,5-c]pyridin-6-yl}-2-oxo-1-[(1S,3S)-3-(piperidin-1-yl)cyclobutyl]-1,2-dihydrospiro[indole-3,4′-piperidin]-1′-yl)carbonyl]-4-methylpiperidine-1-carbonyl}piperidin-1-yl)phenyl]piperidine-2,6-dione], the DC50 is less than 100 nM and the Dmax is more than 85%.
On to `CC(C)n1cnc2cc(-c3ccc4c(c3)N([C@H]3C[C@@H](N5CCCCC5)C3)C(=O)C43CCN(C(=O)C4(C)CCN(C(=O)C5CCN(c6ccc(C7CCC(=O)NC7=O)cc6)CC5)CC4)CC3)nc(NC3CC3)c21` (mixture of isomers) [Example 111, (3RS)-3-(4-{4-[4-({6-[4-(cyclopropylamino)-3-(propan-2-yl)-3H-imidazo[4,5-c]pyridin-6-yl]-2-oxo-1-[(1S,3S)-3-(piperidin-1-yl)cyclobutyl]-1,2-dihydrospiro[indole-3,4′-piperidin]-1′-yl}carbonyl)-4-methylpiperidine-1-carbonyl]piperidin-1-yl}phenyl)piperidine-2,6-dione], for which the DC50 was less than 100 nM and the Dmax was 70 to 85%.
As to `CC(C)n1cnc2cc(-c3ccc4c(c3)N([C@H]3C[C@@H](N5CCCCC5)C3)C(=O)C43CCN(C(=O)C4(C)CCN(C(=O)C5CCN(c6ccc(C7CCC(=O)NC7=O)cc6)CC5)CC4)CC3)nc(Nc3ccncc3F)c21` (mixture of isomers) [Example 112, (3RS)-3-[4-(4-{4-[(6-{4-[(3-fluoropyridin-4-yl)amino]-3-(propan-2-yl)-3H-imidazo[4,5-c]pyridin-6-yl}-2-oxo-1-[(1S,3S)-3-(piperidin-1-yl)cyclobutyl]-1,2-dihydrospiro[indole-3,4′-piperidin]-1′-yl)carbonyl]-4-methylpiperidine-1-carbonyl}piperidin-1-yl)phenyl]piperidine-2,6-dione], the DC50 was less than 100 nM and the Dmax was in the range of 70 to 85%.
Take `CC(C)n1cnc2cc(-c3ccc4c(c3)N([C@H]3C[C@@H](N5CCCCC5)C3)C(=O)C43CCN(C(=O)C4(C)CCN(C(=O)C5CCN(c6ccc(C7CCC(=O)NC7=O)cn6)CC5)CC4)CC3)nc(NC3CC3)c21` (mixture of isomers) [Example 113, (3RS)-3-(6-{4-[4-({6-[4-(cyclopropylamino)-3-(propan-2-yl)-3H-imidazo[4,5-c]pyridin-6-yl]-2-oxo-1-[(1S,3S)-3-(piperidin-1-yl)cyclobutyl]-1,2-dihydrospiro[indole-3,4′-piperidin]-1′-yl}carbonyl)-4-methylpiperidine-1-carbonyl]piperidin-1-yl}pyridin-3-yl)piperidine-2,6-dione]: the DC50 is less than 100 nM and the Dmax lay in the range of 70 to 85%.
`CC(C)n1cnc2cc(-c3ccc4c(c3)N([C@H]3C[C@@H](N5CCCCC5)C3)C(=O)C43CCN(C(=O)C4(C)CCN(C(=O)C5CCN(c6ccc(C7CCC(=O)NC7=O)cn6)CC5)CC4)CC3)nc(Nc3ccccc3F)c21` (mixture of isomers) [Example 114, (3RS)-3-[6-(4-{4-[(6-{4-[(2-fluorophenyl)amino]-3-(propan-2-yl)-3H-imidazo[4,5-c]pyridin-6-yl}-2-oxo-1-[(1S,3S)-3-(piperidin-1-yl)cyclobutyl]-1,2-dihydrospiro[indole-3,4′-piperidin]-1′-yl)carbonyl]-4-methylpiperidine-1-carbonyl}piperidin-1-yl)pyridin-3-yl]piperidine-2,6-dione]: the DC50 is less than 100 nM and the maximal degradation (Dmax) lay within 70 to 85%.
The like results for `CC(C)n1cnc2cc(-c3ccc4c(c3)N([C@H]3C[C@@H](N5CCCCC5)C3)C(=O)C43CCN(C(=O)C4(C)CCN(C(=O)C5CCN(c6ccc(C7CCC(=O)NC7=O)nc6)CC5)CC4)CC3)nc(NC3CC3)c21` (mixture of isomers) [Example 118, (3RS)-3-(5-{4-[4-({6-[4-(cyclopropylamino)-3-(propan-2-yl)-3H-imidazo[4,5-c]pyridin-6-yl]-2-oxo-1-[(1S,3S)-3-(piperidin-1-yl)cyclobutyl]-1,2-dihydrospiro[indole-3,4′-piperidin]-1′-yl}carbonyl)-4-methylpiperidine-1-carbonyl]piperidin-1-yl}pyridin-2-yl)piperidine-2,6-dione] were, in that order, less than 100 nM and 50 to 70%.
For `CC(C)n1cnc2cc(-c3ccc4c(c3)N([C@H]3C[C@@H](N5CCCCC5)C3)C(=O)C43CCN(C(=O)C4(C)CCN(C(=O)C5CCN(c6ccc(C7CCC(=O)NC7=O)nc6)CC5)CC4)CC3)nc(Nc3ccccc3F)c21` (mixture of isomers) [Example 119, (3RS)-3-[5-(4-{4-[(6-{4-[(2-fluorophenyl)amino]-3-(propan-2-yl)-3H-imidazo[4,5-c]pyridin-6-yl}-2-oxo-1-[(1S,3S)-3-(piperidin-1-yl)cyclobutyl]-1,2-dihydrospiro[indole-3,4′-piperidin]-1′-yl)carbonyl]-4-methylpiperidine-1-carbonyl}piperidin-1-yl)pyridin-2-yl]piperidine-2,6-dione], the DC50 is less than 100 nM and the Dmax fell in the range of 70 to 85%.
With `CC(C)n1cnc2cc(-c3ccc4c(c3)N([C@H]3C[C@@H](N5CCCCC5)C3)C(=O)C43CCN(C(=O)C4(C)CCN(C(=O)C5CCN(c6ccc(C7CCC(=O)NC7=O)nc6)CC5)CC4)CC3)nc(Nc3ccncc3F)c21` (mixture of isomers) [Example 120, (3RS)-3-[5-(4-{4-[(6-{4-[(3-fluoropyridin-4-yl)amino]-3-(propan-2-yl)-3H-imidazo[4,5-c]pyridin-6-yl}-2-oxo-1-[(1S,3S)-3-(piperidin-1-yl)cyclobutyl]-1,2-dihydrospiro[indole-3,4′-piperidin]-1′-yl)carbonyl]-4-methylpiperidine-1-carbonyl}piperidin-1-yl)pyridin-2-yl]piperidine-2,6-dione], the DC50 was less than 100 nM and the Dmax was 70 to 85%.
Consider `CC(C)n1cnc2cc(-c3ccc4c(c3)N([C@H]3C[C@@H](N5CCCCC5)C3)C(=O)C43CCN(C(=O)C4(C)CCN(C(=O)CN5CCN(c6ccc(C7CCC(=O)NC7=O)cn6)CC5)CC4)CC3)nc(NC3CC3)c21` (mixture of isomers) [Example 123, (3RS)-3-[6-(4-{2-[4-({6-[4-(cyclopropylamino)-3-(propan-2-yl)-3H-imidazo[4,5-c]pyridin-6-yl]-2-oxo-1-[(1S,3S)-3-(piperidin-1-yl)cyclobutyl]-1,2-dihydrospiro[indole-3,4′-piperidin]-1′-yl}carbonyl)-4-methylpiperidin-1-yl]-2-oxoethyl}piperazin-1-yl)pyridin-3-yl]piperidine-2,6-dione], for which the DC50 is less than 100 nM and the Dmax was 50 to 70%.
The like results for `Cc1cc(C(=O)N2CCN(c3ccc4c(c3)C(=O)N(C3CCC(=O)NC3=O)C4=O)CC2)ccc1C(=O)N1CCC2(CC1)C(=O)N([C@H]1C[C@@H](N3CCCCC3)C1)c1cc(-c3cc4ncn(C(C)C)c4c(Nc4ccccc4F)n3)ccc12` (mixture of isomers) [Example 124, 2-[(3RS)-2,6-dioxopiperidin-3-yl]-5-(4-{4-[(6-{4-[(2-fluorophenyl)amino]-3-(propan-2-yl)-3H-imidazo[4,5-c]pyridin-6-yl}-2-oxo-1-[(1S,3S)-3-(piperidin-1-yl)cyclobutyl]-1,2-dihydrospiro[indole-3,4′-piperidin]-1′-yl)carbonyl]-3-methylbenzoyl}piperazin-1-yl)-2,3-dihydro-1H-isoindole-1,3-dione] were, in that order, 100 to 500 nM and 70 to 85%.

For the origin of these results see US12091426B2, “Bifunctional degraders of hematopoietic progenitor kinase and therapeutic uses thereof” (Nurix Therapeutics, Inc., priority 2021, dated 2024).
